From publication PMC10571041, “Activity of Single Insect Olfactory Receptors Triggered by Airborne Compounds Recorded in Self-Assembled Tethered Lipid Bilayer Nanoarchitectures” (ACS Applied Materials & Interfaces, 2023)

Molecular target: T1, EcorOBP15-m1 (odorant binding protein) (Eupeodes corollae, UniProt A0A8F9RZG6, F82L)
T1 construct: recombinant protein expressed in E. coli
T1 sequence (A0A8F9RZG6 22-145 F82L): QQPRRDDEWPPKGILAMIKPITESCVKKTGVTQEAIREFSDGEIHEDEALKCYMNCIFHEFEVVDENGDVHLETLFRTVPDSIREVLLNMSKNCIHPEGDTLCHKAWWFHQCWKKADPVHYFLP
Assay: competitive fluorescence displacement of 1-NPN

CCCCCC(=O)OCC [ethyl hexanoate]
Kd: 7.4 µM
